Source: publication PMC9312876, “Therapeutic Potential of a Novel Vitamin D3 Oxime Analogue, VD1-6, with CYP24A1 Enzyme Inhibitory Activity and Negligible Vitamin D Receptor Binding” (Biomolecules, 2022)

Key:
vitamin D receptor (VDR) [1] = target: T1, vitamin D receptor (VDR) (Homo sapiens, UniProt P11473); test: fluorescence polarization competition with Fluormone VDR Red tracer (PolarScreen); binding only evident above […]
T1 construct: full-length
T1 sequence (P11473 1-427): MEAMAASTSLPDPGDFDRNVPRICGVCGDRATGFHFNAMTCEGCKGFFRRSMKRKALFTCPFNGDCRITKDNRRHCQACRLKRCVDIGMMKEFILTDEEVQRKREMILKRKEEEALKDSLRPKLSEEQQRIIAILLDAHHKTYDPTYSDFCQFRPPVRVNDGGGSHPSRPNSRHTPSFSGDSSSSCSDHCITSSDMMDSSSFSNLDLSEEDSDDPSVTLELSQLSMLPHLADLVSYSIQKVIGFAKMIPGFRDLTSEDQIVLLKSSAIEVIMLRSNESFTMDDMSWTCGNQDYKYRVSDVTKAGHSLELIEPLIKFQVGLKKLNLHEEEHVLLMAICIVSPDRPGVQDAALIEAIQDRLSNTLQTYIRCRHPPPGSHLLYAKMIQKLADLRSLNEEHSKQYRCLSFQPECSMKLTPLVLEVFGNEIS

vitamin D receptor (VDR) [2] = target: T1, vitamin D receptor (VDR); test: fluorescence polarization competition with Fluormone VDR Red tracer (PolarScreen); format: binding

Structure (SMILES)	IC50 (vitamin D receptor (VDR) [1])	IC50 (vitamin D receptor (VDR) [2])
C=C1/C(=C\C=C2/CCC[C@]3(C)[C@@H]([C@H](C)CCC(=NOC)C(C)(C)C)CC[C@@H]23)C[C@@H](O)C[C@@H]1O [VD1-6]	438 nM	–
C=C1CC[C@H](O)C/C1=C/C=C1\CCC[C@]2(C)[C@@H]([C@H](C)CCCC(C)(C)O)CC[C@@H]12 [25(OH)D3]	–	56.2 nM
